Results published in patent US12398141B2 (SHANGHAI SYNERGY PHARMACEUTICAL SCIENCES CO., LTD, priority 2019, dated 2025).

Assays:
JAK1 = JAK1 (Homo sapiens (Human), UniProt P23458); test: JAK1 LANCE Ultra kinase assay; assay type: biochemical
Procedure, shortened: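 JAK1 preincubated with compound 10 min at room temperature, then ULight-JAK-1 peptide/ATP added for 90 min at room temperature; stopped with EDTA, Eu-W1024 anti-phosphotyrosine TR-FRET read after 60 min. Inhibition normalised to DMSO and blank wells; IC50 from curve fit.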

JAK2 = JAK2 (Homo sapiens (Human), UniProt O60674); test: JAK2 LANCE Ultra kinase assay; assay type: biochemical; settings: 12 uM ATP
JAK2, sequence (O60674 whole entry): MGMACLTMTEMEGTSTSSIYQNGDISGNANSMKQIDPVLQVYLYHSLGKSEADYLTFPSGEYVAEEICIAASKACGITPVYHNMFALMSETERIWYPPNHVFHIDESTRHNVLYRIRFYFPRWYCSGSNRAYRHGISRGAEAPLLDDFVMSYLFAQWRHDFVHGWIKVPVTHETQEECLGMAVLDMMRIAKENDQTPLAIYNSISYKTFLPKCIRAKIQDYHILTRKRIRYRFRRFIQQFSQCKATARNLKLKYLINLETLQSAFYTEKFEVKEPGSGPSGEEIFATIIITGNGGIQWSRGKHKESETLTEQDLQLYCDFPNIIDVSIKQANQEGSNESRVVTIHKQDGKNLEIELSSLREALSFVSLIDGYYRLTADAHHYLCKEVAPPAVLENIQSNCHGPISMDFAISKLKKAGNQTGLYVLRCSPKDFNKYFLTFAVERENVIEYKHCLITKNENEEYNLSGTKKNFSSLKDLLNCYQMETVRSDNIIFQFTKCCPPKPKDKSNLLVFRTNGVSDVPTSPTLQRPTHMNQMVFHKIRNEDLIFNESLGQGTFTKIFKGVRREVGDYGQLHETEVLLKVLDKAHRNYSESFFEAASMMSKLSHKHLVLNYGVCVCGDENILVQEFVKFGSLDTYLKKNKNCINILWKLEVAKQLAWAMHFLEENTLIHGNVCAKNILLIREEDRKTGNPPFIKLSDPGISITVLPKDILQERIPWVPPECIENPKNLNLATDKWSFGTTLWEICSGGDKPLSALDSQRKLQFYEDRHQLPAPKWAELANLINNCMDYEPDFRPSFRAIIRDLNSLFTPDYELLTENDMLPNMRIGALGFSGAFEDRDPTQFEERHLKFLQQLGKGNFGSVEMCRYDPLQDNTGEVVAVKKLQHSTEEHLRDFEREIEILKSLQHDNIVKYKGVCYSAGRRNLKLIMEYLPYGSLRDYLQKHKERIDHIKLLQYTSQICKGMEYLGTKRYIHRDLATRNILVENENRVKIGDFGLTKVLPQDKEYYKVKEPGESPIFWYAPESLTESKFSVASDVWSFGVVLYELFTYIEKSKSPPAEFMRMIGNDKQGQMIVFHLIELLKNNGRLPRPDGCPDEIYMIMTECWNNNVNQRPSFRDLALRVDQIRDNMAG

Sprague-Dawley (SD) mice = test: Concanavalin-induced paw swelling in mice; assay type: in vivo; settings: 10 mg/kg intragastric
Procedure, shortened: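 SD […], 6-7 weeks, 160-180 g, dosed intragastrically with compound in 4% Tween 80/0.5% HPMC. 0.5 h later, 0.1 ml 0.03% concanavalin injected subcutaneously into the plantar. Paw volume measured before modeling and at 1, 2, 4 and 6 h; swelling rate expressed as percent change from pre-dose volume.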

hERG potassium channel = hERG potassium channel (Homo sapiens (Human), UniProt Q12809); test: hERG potassium channel current, manual patch clamp; assay type: cell-based; settings: HEK293 cells overexpressing hERG potassium channel, whole-cell patch clamp; read-out: IC50 (μM) inhibiting hERG current
hERG potassium channel, sequence (Q12809 whole entry): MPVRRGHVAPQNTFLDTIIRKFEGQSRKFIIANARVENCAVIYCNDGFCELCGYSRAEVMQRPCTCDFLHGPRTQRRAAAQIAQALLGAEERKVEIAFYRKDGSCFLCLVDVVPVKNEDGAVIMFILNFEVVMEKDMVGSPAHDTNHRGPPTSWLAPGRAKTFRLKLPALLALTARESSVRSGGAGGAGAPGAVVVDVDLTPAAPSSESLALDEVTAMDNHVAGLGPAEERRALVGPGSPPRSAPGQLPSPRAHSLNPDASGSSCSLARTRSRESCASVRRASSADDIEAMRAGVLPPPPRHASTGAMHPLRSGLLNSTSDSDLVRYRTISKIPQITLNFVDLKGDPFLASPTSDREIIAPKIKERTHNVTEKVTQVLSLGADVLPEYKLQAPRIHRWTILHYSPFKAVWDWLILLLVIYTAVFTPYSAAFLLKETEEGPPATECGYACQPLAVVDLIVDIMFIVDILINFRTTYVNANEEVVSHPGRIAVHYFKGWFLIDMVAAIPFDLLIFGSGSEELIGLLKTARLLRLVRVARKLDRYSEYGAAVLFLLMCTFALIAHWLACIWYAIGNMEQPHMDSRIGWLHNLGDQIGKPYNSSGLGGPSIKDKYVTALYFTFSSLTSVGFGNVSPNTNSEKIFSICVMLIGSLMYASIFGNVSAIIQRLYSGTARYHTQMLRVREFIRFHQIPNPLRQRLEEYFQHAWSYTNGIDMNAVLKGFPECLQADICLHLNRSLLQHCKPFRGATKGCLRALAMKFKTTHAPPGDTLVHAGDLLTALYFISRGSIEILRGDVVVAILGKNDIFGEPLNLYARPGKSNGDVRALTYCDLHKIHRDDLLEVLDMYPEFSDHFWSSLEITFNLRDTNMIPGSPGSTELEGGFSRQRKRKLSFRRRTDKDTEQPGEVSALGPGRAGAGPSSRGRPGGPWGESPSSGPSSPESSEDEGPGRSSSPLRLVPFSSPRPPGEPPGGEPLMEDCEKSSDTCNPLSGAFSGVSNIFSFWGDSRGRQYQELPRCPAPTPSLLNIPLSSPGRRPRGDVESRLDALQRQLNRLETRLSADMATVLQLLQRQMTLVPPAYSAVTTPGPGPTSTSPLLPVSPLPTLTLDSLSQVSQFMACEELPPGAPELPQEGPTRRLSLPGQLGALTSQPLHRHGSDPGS
Description: Effects of compounds H07, H12, H14, H25, H30, H39 and H44 on hERG potassium channel were detected by applying electrophysiological manual patch clamp to study an initial cardiac safety of the compounds of the invention.
Test compounds were dissolved in dimethyl sulfoxide to prepare mother solutions (10 mM, 3.3 mM, 1.1 mM and 0.37 mM). Next an extracellular fluid was used for secondary dilution so that the test solution had final concentrations of 30 μM, 10 μM, 3.3 μM, 1.1 μM and 0.37 μM.
Extracellular fluids: 130 mM sodium chloride, 4 mM potassium chloride, 1.8 mM calcium chloride, 1 mM magnesium chloride, 10 mM glucose, 10 mM 4-hydroxyethylpiperazine ethane sulfonic acid (pH 7.4)
Intracellular fluid: 130 mM potassium chloride, 1 mM magnesium chloride, 5 mM ethylene glycol diethyl ether diamine tetraacetic acid, 5 mM triphosadenine and 10 mM 4-hydroxyethylpiperazine ethane sulfonic acid (pH7.2)
Compositions of a cell culture medium: Dulbecco's modified eagle medium (Grand Turk Island Biotechnology Company, 11330032), 15% fetal calf serum (Sigma, A15-101, USA), 1% penicillin-streptomycin (Biowest, L0022-100).
HEK293 cells overexpressing hERG potassium channel (from Dr. Mohamed Boutjdir's laboratory, School of Medicine, New York University—PharmaCore Labs, Inc.) were incubated in a medium consisting of Dulbecco's modified eagle medium/15% fetal calf serum/1% penicillin-streptomycin in a 5% CO2 incubator at 37° C. In the test, the cells were transferred to a cell bath embedded into a inverted microscope platform, and extracellular fluid was perfused. After stabilization for 5 minutes, the cells were precipitated and then the test could start. Membrane currents were recorded by using HEKA EPC-10 patch clamp amplifier and […] acquisition system (HEKA Instrument Co., Ltd., D-67466 Lambrcht, Palatinate, Germany). All tests were completed at room temperature (22-24° C.). P-97 microelectrode puller (Sutter Instrument Company, Novato, […] 94949) was used to straighten the electrodes (BF150-110-10). The inner diameter of the electrode was 1-1.5 mm, and the water resistance after internal liquid filling was 2-4 MΩ.
Tests were carried out in whole-cell recording mode, with current values recorded according to the electrophysiological stimulation protocol below. First, the membrane voltage was clamped at −80 mV, and the cells were stimulated with +20 mV for two seconds to activate hERG potassium channel, which was then repolarized to −50 mV for five seconds, producing an outward tail current with a stimulation frequency of every 15 seconds. The current value was a peak value of the tail current. In the test, the channel current was recorded in the whole-cell recording mode. First, extracellular fluid (about 2 ml per minute) was perfused and recorded continuously, and then the current was allowed to stabilize (current decay (run-down) was less than 5% within 5 minutes). At this time, the peak value of the tail current was the control current value. Subsequently, the extracellular fluid containing the drug to be tested was perfused and recorded continuously until the inhibiting effect of drug on hERG current reached a stable state, at which time the peak value of the tail current was the current value after adding drugs. After a stable situation was achieved, if hERG current recovered after perfusing and washing with extracellular fluid, perfusion could be continued to test other concentrations or drugs. The solution containing the drugs to be tested was perfused in descending order of concentration and the current values were recorded. […] V2X60 (HEKA Instrument Co., Ltd., D-67466 Lambrcht, Palatinate, Germany) was used to collect data. ORANGE 8.5 (ORANGE Laboratory Company, Northampton, UK) software was used for the analysis and statistics.

JAK1, sequence (P23458 whole entry): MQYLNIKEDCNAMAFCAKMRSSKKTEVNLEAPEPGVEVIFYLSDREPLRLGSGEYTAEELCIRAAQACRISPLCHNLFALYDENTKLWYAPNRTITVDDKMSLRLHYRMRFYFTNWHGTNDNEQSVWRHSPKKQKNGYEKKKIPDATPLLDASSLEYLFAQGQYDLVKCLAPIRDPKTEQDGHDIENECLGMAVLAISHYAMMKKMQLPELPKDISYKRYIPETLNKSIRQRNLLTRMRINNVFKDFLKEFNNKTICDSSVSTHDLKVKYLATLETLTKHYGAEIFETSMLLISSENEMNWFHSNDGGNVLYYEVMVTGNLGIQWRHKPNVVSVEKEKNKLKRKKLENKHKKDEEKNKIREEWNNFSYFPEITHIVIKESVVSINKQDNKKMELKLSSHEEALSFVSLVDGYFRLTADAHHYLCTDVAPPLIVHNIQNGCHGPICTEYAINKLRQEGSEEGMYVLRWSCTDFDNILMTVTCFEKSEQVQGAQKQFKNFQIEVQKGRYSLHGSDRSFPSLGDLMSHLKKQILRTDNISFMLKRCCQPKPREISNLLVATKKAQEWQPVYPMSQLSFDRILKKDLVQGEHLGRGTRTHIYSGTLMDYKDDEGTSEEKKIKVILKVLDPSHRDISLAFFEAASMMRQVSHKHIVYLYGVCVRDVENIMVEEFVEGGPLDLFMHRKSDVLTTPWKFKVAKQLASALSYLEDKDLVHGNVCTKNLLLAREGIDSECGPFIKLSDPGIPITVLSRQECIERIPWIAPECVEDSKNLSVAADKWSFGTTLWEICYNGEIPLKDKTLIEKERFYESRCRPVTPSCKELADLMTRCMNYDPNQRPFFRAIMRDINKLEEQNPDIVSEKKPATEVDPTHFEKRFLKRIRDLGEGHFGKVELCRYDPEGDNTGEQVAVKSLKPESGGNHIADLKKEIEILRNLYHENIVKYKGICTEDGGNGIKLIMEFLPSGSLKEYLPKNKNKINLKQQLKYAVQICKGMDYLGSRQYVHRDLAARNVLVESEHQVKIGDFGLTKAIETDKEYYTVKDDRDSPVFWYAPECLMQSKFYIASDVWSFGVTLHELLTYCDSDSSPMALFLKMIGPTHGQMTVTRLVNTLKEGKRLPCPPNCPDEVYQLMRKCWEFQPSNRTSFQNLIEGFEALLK

- IC50 (JAK1; 38 uM ATP): 0.67 nM
- JAK2/JAK1 (JAK1; ratio of IC50 JAK2 to IC50 JAK1): 23.28
- IC50 (JAK2): 15.6 nM
SMILES: CN(c1c(C#N)cnc2[nH]ccc12)[C@H]1C[C@@H]2CN(C(=O)Nc3nc(OCC(C)(C)N)ns3)C[C@@H]2C1 [Compound H44, (3aR,5s,6aS)-5-((5-cyano-1H-pyrrolo[2,3-b]pyridin-4-yl)(methyl)amino)-N-(3-(2-amino-2-methyl-propoxy)-1,2,4-thiadiazole-5-yl)hexahydrocyclopentadiene[c]pyrrole-2(1H)-carboxamide]
- Paw swelling rate_1 h (%) (Sprague-Dawley (SD) mice; 1 h): 23.80 ± 1.60%
- Paw swelling rate_2 h (%) (Sprague-Dawley (SD) mice; 2 h): 24.80 ± 2.50%
- Paw swelling rate_4 h (%) (Sprague-Dawley (SD) mice; 4 h): 24.20 ± 2.90%
- Paw swelling rate_6 h (%) (Sprague-Dawley (SD) mice; 6 h): 23.50 ± 2.90%
- IC50 (hERG potassium channel): > 30 µM
